From paper PMC10608315, “Organic Synthesis of New Secosteroids from Fucosterol, Its Intestinal Absorption by Caco-2 Cells, and Simulation of the Biological Activities of Vitamin D” (Marine Drugs, 2023)
Where two headings read alike, the source gives them in different places. Values belong to the compound of their own block, whether it stands above or below them.

What was measured:
human breast cancer cell = system: human breast cancer cell; parameters: method as in PMID 10762752; details: compared with 1,25-di(OH)-vitamin D3; cited from earlier work
[1] = system: chemically induced cancers; details: cited from earlier work
[2] = parameters: method as in PMID 12628523; details: cited from earlier work
Caco-2 cells [3] = details: human, Caco-2, 24 h, 1 µM
[4] = parameters: method as in PMID 9598513, PMID 10389917; details: potential cancer therapy; cited from earlier work
rickets = details: rats; cited from earlier work
Caco-2 cells [5] = assay: Intestinal absorption of mixed micellar secosteroid by differentiated Caco-2 monolayers in Transwell plates (remaining, uptake, transport); details: summary of Caco-2 uptake and transport, 24 h
Caco-2 = system: Caco-2; parameters: method as in PMID 9184144; details: cholesterol versus sitosterol; cited from earlier work

Compound: C=C1/C(=C\C=C2/CCC[C@]3(C)[C@@H]([C@H](C)CC[C@@H](CC)C(C)C)CC[C@@H]23)C[C@@H](O)C[C@@H]1O [1-OH-vitamin D5]
- Inhibition of human breast cancer cell growth (human breast cancer cell): as effective as 1,25-di(OH)-vitamin D3
- Effectiveness compared with 1,25-di(OH)-vitamin D3 [1]: less effective than 1,25-di(OH)-vitamin D3
- Treatment of chemically induced cancers ([1]; mice and rats): effectively treated
- Side effects like weight loss and disruptions to calcium levels [2]: markedly fewer side effects

- Intestinal absorption (uptake and transport) ranking (Caco-2 cells [3]): compound 4 ≥ vitamin D3 ≥ compound 3
Compound: C=C1CCC(O)CC1=CC=C1CCCC2(C)C1CCC2C(C)CCC(=CC)C(C)C [Compound 3, (5Z,7E,24E)-(3S)-9,10-seco-5,7,10(19),24(24^1)-stigmastatetraen-3-ol]
- Concentration of micellar secosteroid remaining on the apical side (Caco-2 cells [3]): significantly higher concentrations than vitamin D3

Compound: C=C1C(=CC=C2CCCC3(C)C2CCC3C(C)CCCC(C)(C)O)CC(O)CC1O (stereo not shown) [1,25-di(OH)-Vitamin D3]
- Side effects in clinical trials [4]: side effects like hypercalcemia [75] and hypercalciuria

Compound: C=C1CCC(O)C/C1=C/C=C1\CCCC2(C)C1CCC2C(C)CCC(CC)C(C)C (stereo not shown) [Vitamin D5]
- Anti-rickets activity (rickets): very low anti-rickets activity

- Intestinal absorption (uptake and transport) ranking (Caco-2 cells [3]): compound 4 ≥ vitamin D3 ≥ compound 3
Compound: C=C(C)C(=CC)CCC(C)C1CCC2C(=CC=C3CC(O)CCC3=C)CCCC21C [Compound 4, (5Z,7E,24E)-(3S)-9,10-seco-5,7,10(19),24(24^1),25(27)-stigmastapentaen-3-ol]
- Concentration of micellar secosteroid remaining on the apical side (Caco-2 cells [3]): significantly higher concentrations than vitamin D3
- Secosteroid transported from the monolayer into the basolateral medium (Caco-2 cells [3]): No significant deviation was observed between vitamin D3 and compound 4

Compound: C=C1CC[C@H](O)C/C1=C/C=C1\CCC[C@]2(C)[C@@H]([C@H](C)CCCC(C)C)CC[C@@H]12 [Vitamin D3, cholecalciferol]
- Intestinal absorption (uptake and transport) ranking (Caco-2 cells [5]): compound 4 ≥ vitamin D3 ≥ compound 3

Compound: CC(C)CCC[C@@H](C)[C@H]1CC[C@H]2[C@@H]3CC=C4C[C@@H](O)CC[C@]4(C)[C@H]3CC[C@]12C [cholesterol]
- Uptake and transport by Caco-2 (Caco-2): higher for cholesterol than for sitosterol
